Data: ChEMBL document CHEMBL1201862, “PubChem BioAssay data set” (2004)
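Results reflect a 48-hour exposure of cells in 96-well plates to compound at five concentrations. GI50: concentration for 50% inhibition of growth.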 The source made the active and inactive calls. No stated cut-off is given here; in the data, active = GI50 up to about 1.1 µM and inactive = higher.

Experiments:
Test in all cases: NCI tumour cell line growth inhibition, 48 h
RXF 393 = system: RXF 393
RPMI-8226 = system: RPMI-8226
SW-620 = system: SW-620
HOP-92 = system: HOP-92
NCI-H226 = system: NCI-H226
HCT-15 = system: HCT-15
LOX IMVI = system: LOX IMVI
SK-MEL-28 = system: SK-MEL-28
UACC-62 = system: UACC-62
OVCAR-3 = system: OVCAR-3
CCRF-CEM = system: CCRF-CEM
SK-OV-3 = system: SK-OV-3
OVCAR-8 = system: OVCAR-8
TK-10 = system: TK-10
SR = system: SR
SK-MEL-5 = system: SK-MEL-5
K562 = system: K562
ACHN = system: ACHN
OVCAR-4 = system: OVCAR-4
SNB-75 = system: SNB-75

Row | Structure (SMILES) | GI50 (RXF 393) | GI50 (RPMI-8226) | GI50 (SW-620) | GI50 (HOP-92) | GI50 (NCI-H226) | GI50 (HCT-15) [µM] | GI50 (LOX IMVI) | GI50 (SK-MEL-28) | GI50 (UACC-62) | GI50 (OVCAR-3) | GI50 (CCRF-CEM) | GI50 (SK-OV-3) | GI50 (OVCAR-8) | GI50 (TK-10) | GI50 (SR) | GI50 (SK-MEL-5) | GI50 (K562) | GI50 (ACHN) | GI50 (OVCAR-4) | GI50 (SNB-75)
1 | COc1ccc2c(c1)c(=O)c1ccccc1n2/C=C/C(=O)O | > 79.4 µM (inactive) | > 100 µM (inactive) | > 100 µM (inactive) | > 100 µM (inactive) | > 100 µM (inactive) | > 100 | > 46.9 µM (inactive) | > 100 µM (inactive) | > 100 µM (inactive) | > 100 µM (inactive) | > 48.4 µM (inactive) | > 100 µM (inactive) | > 100 µM (inactive) | > 100 µM (inactive) | > 41.7 µM (inactive) | > 100 µM (inactive) | > 100 µM (inactive) | > 100 µM (inactive) | > 100 µM (inactive) | > 100 µM (inactive)
2 | CCOC(=O)C(SCCO)C(C(=O)OCC)n1ccc(=O)[nH]c1=O (centres undefined) | 24.2 µM (inactive) | 17.5 µM (inactive) | 12.9 µM (inactive) | 13.8 µM (inactive) | > 35.6 µM (inactive) | 17.5 | 14.8 µM (inactive) | 28.8 µM (inactive) | 20.4 µM (inactive) | 23.3 µM (inactive) | 1.98 µM (inactive) | > 100 µM (inactive) | 25.1 µM (inactive) | > 56.8 µM (inactive) | 11.9 µM (inactive) | 63.5 µM (inactive) | 5.55 µM (inactive) | 21.2 µM (inactive) | > 49.3 µM (inactive) | 25.4 µM (inactive)
3 | Oc1cc(Cl)cc2cc(Br)cnc12 | 2.29 µM (inactive) | 1.42 µM (inactive) | 3.96 µM (inactive) | 4.69 µM (inactive) | 22.6 µM (inactive) | 0.771 | 0.463 µM (active) | 7.16 µM (inactive) | 6.27 µM (inactive) | 1.52 µM (inactive) | 1.9 µM (inactive) | > 59.8 µM (inactive) | 2.3 µM (inactive) | 41.3 µM (inactive) | 1.42 µM (inactive) | 1.53 µM (inactive) | 1.69 µM (inactive) | 1.88 µM (inactive) | 3.49 µM (inactive) | 13.6 µM (inactive)
4 | COC(=O)C1(F)C(=O)NC(=O)NC1O (centres undefined) | > 100 µM (inactive) | > 100 µM (inactive) | > 77.6 µM (inactive) | > 58.9 µM (inactive) | > 100 µM (inactive) | 61.5 | > 100 µM (inactive) | > 100 µM (inactive) | > 100 µM (inactive) | 62.7 µM (inactive) | > 89.1 µM (inactive) | > 100 µM (inactive) | > 100 µM (inactive) | > 100 µM (inactive) | > 53 µM (inactive) | > 100 µM (inactive) | > 84.5 µM (inactive) | > 75 µM (inactive) | 80 µM (inactive) | > 65 µM (inactive)
5 | COc1ccc(C2c3cc4c(cc3OC(N3CCOCC3)C2C)OCO4)cc1OC (centres undefined) | 5.89 µM (inactive) | 6.18 µM (inactive) | 4.74 µM (inactive) | 8.95 µM (inactive) | 6.9 µM (inactive) | 4.76 | 6.11 µM (inactive) | > 50.5 µM (inactive) | 5.48 µM (inactive) | 3.3 µM (inactive) | 4.28 µM (inactive) | 5.24 µM (inactive) | 20.4 µM (inactive) | 15.6 µM (inactive) | 7.36 µM (inactive) | 4.06 µM (inactive) | 4.31 µM (inactive) | 10.3 µM (inactive) | 15.8 µM (inactive) | 2.99 µM (inactive)
6 | C/C(CC(O)(C(F)(F)F)C(F)(F)F)=N/Nc1ccc([N+](=O)[O-])cc1[N+](=O)[O-] | 2.12 µM (inactive) | 1.56 µM (inactive) | 3.44 µM (inactive) | 1.8 µM (inactive) | 2.06 µM (inactive) | 2.85 | 3.3 µM (inactive) | 3.27 µM (inactive) | 3.02 µM (inactive) | 1.96 µM (inactive) | 3.41 µM (inactive) | 2.33 µM (inactive) | 3 µM (inactive) | 3.56 µM (inactive) | 4.9 µM (inactive) | 1.68 µM (inactive) | 2.44 µM (inactive) | 2.56 µM (inactive) | 3.42 µM (inactive) | 2.69 µM (inactive)
7 | CC1OC(n2cc(F)c(=O)[nH]c2=O)CCC1O (centres undefined) | > 79.6 µM (inactive) | 56.1 µM (inactive) | > 100 µM (inactive) | > 100 µM (inactive) | > 100 µM (inactive) | > 94.4 | > 100 µM (inactive) | > 100 µM (inactive) | > 100 µM (inactive) | > 100 µM (inactive) | > 100 µM (inactive) | > 100 µM (inactive) | > 85.3 µM (inactive) | > 100 µM (inactive) | > 94 µM (inactive) | > 56.2 µM (inactive) | > 100 µM (inactive) | > 95.9 µM (inactive) | > 100 µM (inactive) | > 72.9 µM (inactive)
8 | O=C1[C@@H]2[C@@H](CN3CN(c4ccccc4)N=C(c4ccccc4)[C@@]23c2ccccc2)C(=O)N1c1ccccc1 | 2.95 µM (inactive) | 1.61 µM (inactive) | 2 µM (inactive) | 1.79 µM (inactive) | 0.977 µM (active) | 2.3 | 1.68 µM (inactive) | 11.3 µM (inactive) | 5.98 µM (inactive) | 7.73 µM (inactive) | 1.45 µM (inactive) | 14 µM (inactive) | 5.85 µM (inactive) | 1.48 µM (inactive) | 2.61 µM (inactive) | 16.9 µM (inactive) | 2.69 µM (inactive) | 1.83 µM (inactive) | 2.61 µM (inactive) | 16 µM (inactive)
9 | CC(CO)(CO)N1C(=O)C2C3C=CC(C3)C2C1=O (centres undefined) | 52.1 µM (inactive) | > 100 µM (inactive) | > 100 µM (inactive) | > 100 µM (inactive) | > 100 µM (inactive) | > 100 | > 100 µM (inactive) | > 100 µM (inactive) | > 100 µM (inactive) | > 100 µM (inactive) | > 100 µM (inactive) | > 100 µM (inactive) | > 100 µM (inactive) | > 100 µM (inactive) | > 100 µM (inactive) | > 100 µM (inactive) | > 100 µM (inactive) | > 100 µM (inactive) | > 100 µM (inactive) | > 100 µM (inactive)
10 | O=C(Nc1nc2ncn(CCO)c2c(=O)[nH]1)c1ccccc1 | > 100 µM (inactive) | > 100 µM (inactive) | > 100 µM (inactive) | > 100 µM (inactive) | > 100 µM (inactive) | > 100 | > 100 µM (inactive) | > 100 µM (inactive) | > 100 µM (inactive) | > 100 µM (inactive) | > 100 µM (inactive) | > 100 µM (inactive) | > 100 µM (inactive) | > 100 µM (inactive) | > 100 µM (inactive) | > 100 µM (inactive) | > 100 µM (inactive) | > 100 µM (inactive) | > 100 µM (inactive) | > 100 µM (inactive)
11 | CCC(Sc1cc(Cl)c(C)cc1S(=O)(=O)Nc1nc(N)nc(N(C)C)n1)C(=O)O (centres undefined) | > 10 µM (inactive) | > 10 µM (inactive) | > 10 µM (inactive) | > 10 µM (inactive) | > 10 µM (inactive) | > 10 | > 10 µM (inactive) | > 10 µM (inactive) |  | > 10 µM (inactive) | > 10 µM (inactive) | > 10 µM (inactive) | > 10 µM (inactive) | > 10 µM (inactive) | > 10 µM (inactive) | > 10 µM (inactive) | > 10 µM (inactive) | > 10 µM (inactive) | > 10 µM (inactive) | > 10 µM (inactive)
12 | Nc1nc(Cl)cc(NCC2(CO)CCC(OCc3ccccc3)C2)n1 (centres undefined) | 27 µM (inactive) | 34.4 µM (inactive) | 60 µM (inactive) | 3.57 µM (inactive) | 14.8 µM (inactive) | 15 | 2.83 µM (inactive) | 19.5 µM (inactive) | 21.4 µM (inactive) | 30.5 µM (inactive) | 14.6 µM (inactive) | 11.1 µM (inactive) | 22.1 µM (inactive) | 11.2 µM (inactive) | 4.06 µM (inactive) | 2.82 µM (inactive) | 7.26 µM (inactive) | 5.69 µM (inactive) | 12.1 µM (inactive) | 12.4 µM (inactive)
13 | CC(=O)N(C)SCC(NC(=O)C(Cc1ccccc1)NC(=O)OCc1ccccc1)C(=O)NC(Cc1ccccc1)C(=O)NC(Cc1cn(C=O)c2ccccc12)C(=O)NC(CCCCNC(=O)OCc1ccccc1)C(=O)NC(C(=O)NC(CSN(C)C(C)=O)C(=O)NO)C(C)OCc1ccccc1 (centres undefined) | > 100 µM (inactive) | > 100 µM (inactive) | > 100 µM (inactive) | > 100 µM (inactive) | > 100 µM (inactive) | > 100 | > 100 µM (inactive) | > 100 µM (inactive) | > 100 µM (inactive) | > 100 µM (inactive) | > 100 µM (inactive) | > 100 µM (inactive) | > 100 µM (inactive) | > 100 µM (inactive) | > 100 µM (inactive) | > 100 µM (inactive) | > 100 µM (inactive) | > 100 µM (inactive) | > 100 µM (inactive) | > 100 µM (inactive)
14 | CC/C=C/C[C@H](O[Si](C)(C)C(C)(C)C)[C@H]1C[C@H]2O[C@H]([C@@H](O)C#C[Si](C)(C)C)C[C@H]2O1 | 6.65 µM (inactive) | 12.9 µM (inactive) | 16.6 µM (inactive) | 10.4 µM (inactive) | 6.68 µM (inactive) | 13.7 | 10.4 µM (inactive) | 14.2 µM (inactive) | 17.7 µM (inactive) | 14.8 µM (inactive) | 21.5 µM (inactive) | 15.5 µM (inactive) | 14.8 µM (inactive) | 15.2 µM (inactive) | 2.31 µM (inactive) | 6.78 µM (inactive) | 13.9 µM (inactive) | 15.2 µM (inactive) | 5.85 µM (inactive) | 16.3 µM (inactive)
